From patent publication US8877819B2, “Methods for treating heat stress and related compositions” (Georgetown University, priority 2008, dated 2014)
Marks after values point to notes of the source that are not given here.

Legend:
Zucker Fatty Rats (ZFR) [1] = assay: Blood pressure and cardiac rate by tail plethysmography; type: in vivo; conditions: captopril 30 mg/kg in feed
Protocol: For two experiments, a total of 96 Zucker Fatty Rats (ZFR) (Charles River, Wilmington, Mass.) were used: 48 in each experiment were divided into four groups of 12 rats. Initial body weights ranged between 434 and 624 g in the first experiment and between 388 and 520 g in the second. All rats consumed a regular rat diet in crushed form (Purina Rat Chow, Ralston Purina, St. Louis, Mo.). Sucrose was added to the pulverized regular rat chow (30%, w/w). The four groups comprised a control eating the described diet and three test groups eating the same diet but with the addition of captopril or astaxanthin (two different doses). […] The amount of astaxanthin added was based on 2% (w/w) content of astaxanthin to powder. The first study continued for 57 days while the second continued for 75 days. SBP was measured by tail plethysmography using two different instruments. As in many previous studies, an instrument from Narco Biosciences (Houston, Tex.) was used. This allowed for rapid measurement SBP with a beeper sound system. The second reading was performed on an instrument obtained from Kent Scientific Corporation (Torrington, Conn.). The latter is a computerized, non-invasive tail cuff acquisition system that utilizes a specially-designed differential pressure transducer to non-invasively measure the blood volume in the tail. This instrument not only records SBP, but also provides measurements of mean blood pressure (MBP), diastolic blood pressure (DBP), and cardiac rate. The two instruments were used interchangeably. Previous experience has shown that the SBP readings were virtually the same by either instrument. Rats were allowed free access to their diet and water until SBP readings were obtained between 13.00 h and 17.00 h after a slight warming. Multiple readings on individual rats were taken. To be accepted, SBP measurements on a given rat had to be stable (consistently within 5 mm Hg).

TNF-α = assay: Cytokine assay (ELISA), TNF-α; type: in vivo, Zucker Fatty Rats; conditions: Experiment 2; captopril 30 mg/kg in feed
Protocol: (§1) Various cytokines were measured by ELISA methodology using kits from the following sources: rat MCP-1—Assay Designs Inc., Ann Arbor, Mich.; rat adiponectin—ALPCO Diagnostics, Salem, N.H.; TNF-a, ALPCO Diagnostics, Salem, N.H.; RAT IL-1B—Assay Designs Inc, Ann Arbor, Mich.; RAT IL-6—ALPCO Diagnostics, Salem, N.H.

MCP-1 = assay: Cytokine assay (ELISA), MCP-1; type: in vivo, Zucker Fatty Rats; conditions: Experiment 2; captopril 30 mg/kg in feed
Protocol: as §1

angiotensin-2 = assay: Serum angiotensin-2 levels (radioimmunoassay); type: in vivo, Zucker Fatty Rats; conditions: Experiment 2, captopril 30 mg/kg in feed
Protocol: Serum angiotensin-2 was trapped by octylminicolumns (Amprep-C8, 500 mg, Amersham, Buckingshire, UK). Each minicolumn was prewashed with 5 mL of 100% methanol and then with 10 mL of 0.1% trifluoroacetic acid (TFA) in distilled water. After the serum was passed through the minicolumn, it was washed with 0.1% TFA again. […] Samples were collected and dried in a vacuum centrifuge and dissolved in 0.1M Tris-acetate buffer (pH 7.4) containing 2.6 mM disodium salt of ethylenediaminetetra-acetic acid (EDTA), 1 mM phenylmethylsulphonyl fluoride, and 0.1% bovine serum albumin.
Angiotensin-2 was measured by radioimmunoassay using an angiotensin-2 antibody (Peninsula Laboratories Inc., Belmont, Calif.). The sensitivity of the assay is 1.0 pg/tube. The 500-fold diluted angiotensin-2 antibody (100 μL) was added to the sample (400 μL) and standard tubes that were incubated 24 hours at 4° C.

RAS = assay: Losartan challenge (decrease in SBP to estimate activity of the RAS); type: in vivo, Zucker Fatty Rats; conditions: losartan 40 mg/kg orally, captopril 30 mg/kg in feed
Source text: Three and six hours after lavage, SBP was remeasured. The decreased SBP after losartan was used to estimate activity of the RAS.

IL-1B = assay: Cytokine assay (ELISA), IL-1B; type: in vivo, Zucker Fatty Rats; conditions: Experiment 2; captopril 30 mg/kg in feed
Protocol: as §1

Blood chemistries = type: in vivo, Zucker Fatty Rats; conditions: Experiment 2; blood at end of study; captopril 30 mg/kg in feed
Source text: Blood for chemical analysis was obtained at the end of the study following removal of food four hours earlier. Blood chemistry values were obtained via dry chemistry procedures using a Johnson and Johnson (Langhorne, Pa.) Vitros® 250 instrument.

IL-6 = assay: Cytokine assay (ELISA), IL-6; type: in vivo, Zucker Fatty Rats; conditions: Experiment 2; captopril 30 mg/kg in feed
Protocol: as §1

adiponectin = assay: Cytokine assay (ELISA), adiponectin; type: in vivo, Zucker Fatty Rats; conditions: Experiment 2; captopril 30 mg/kg in feed
Protocol: as §1

Zucker Fatty Rats (ZFR) [2] = assay: Intraperitoneal Glucose Tolerance Test (ipGTT); type: in vivo; conditions: Experiment 2, captopril 30 mg/kg in feed
Protocol: During the ipGTT, glucose (2.5 g/kg BW) was injected intraperitoneally (i.p.) to challenge the tolerance to glucose. Drops of blood were obtained from the tail at 0, 30, 60, 120, 180 and 240 minutes post injection. Glucose was estimated using commercial glucose strips (Lifescan, One Touch Ultra, […], Calif.).

Q: For `C[C@H](CS)C(=O)N1CCC[C@H]1C(=O)O` [Captopril, reference compound], which “SBP over the last month vs control” value (Zucker Fatty Rats (ZFR) [1]; Experiment 1) is on record?
A: significantly lower SBP

Q: What about the “SBP after heat stress” value (Zucker Fatty Rats (ZFR) [1]; Experiment 1, survivors, 12 days after heat stress) of the same compound?
A: 133.8 ± 2.4 mm Hg

Q: What about the DBP (Zucker Fatty Rats (ZFR) [1]; Experiment 2, 60 days) of the same compound?
A: 103.0 ± 1.8 mm Hg

Q: What about the SBP (Zucker Fatty Rats (ZFR) [1]; Experiment 2, 60 days) of the same compound?
A: 129.0 ± 1.5 mm Hg

Q: And the Cardiac rate (Zucker Fatty Rats (ZFR) [1]; Experiment 2, 60 days, in beats/min (unit assumed))?
A: 393.0 ± 9.3

Q: What about the “SBP at the end of study (75 days) vs Lo Asta group” value (Zucker Fatty Rats (ZFR) [1]; Experiment 2) of the same compound?
A: significantly lower than in the Lo Asta group

Q: What about the “average SBP vs control from 40 days to end of study” value (Zucker Fatty Rats (ZFR) [1]; Experiment 2) of the same compound?
A: significantly lower than control

Q: And the TNF-α (TNF-α)?
A: 242.0 ± 13.6

Q: What about the MCP-1 (MCP-1) of the same compound?
A: 81.0 ± 4.1

Q: And the “Angio 2” value (angiotensin-2)?
A: 162.0 ± 6.4 pg/mL

Q: And the “Losartan: decrease in SBP after losartan challenge” value (RAS; Experiment 1, survivors after heat stress)?
A: 29.0 ± 2.4

Q: What about the “Losartan: decrease in SBP after losartan challenge” value (RAS; Experiment 2) of the same compound?
A: 30.6 ± 1.8 mm Hg

Q: What about the IL-1β (IL-1B) of the same compound?
A: 416.0 ± 14.8

Q: And the ALP (alkaline phosphatase) (Blood chemistries)?
A: 333 ± 22.1 U/L

Q: And the “ALT (alanine aminotransferase)” value (Blood chemistries)?
A: 89.4 ± 13.9 units

Q: What about the “AST (aspartate aminotransferase)” value (Blood chemistries) of the same compound?
A: 93.0 ± 12.8 units

Q: What about the BUN (Blood chemistries) of the same compound?
A: 14.0 ± 0.5 mg/dL

Q: What about the CO2 (Blood chemistries) of the same compound?
A: 24.1 ± 0.9 mM

Q: What about the Calcium (Blood chemistries) of the same compound?
A: 11.3 ± 0.6 mg/dL

Q: What about the Chloride (Blood chemistries) of the same compound?
A: 98.6 ± 1 mM

Q: And the Cholesterol (Blood chemistries)?
A: 281.0 ± 15.6 mg/dL

Q: What about the Creatinine (Blood chemistries) of the same compound?
A: 0.4 ± 0.02 mg/dL

Q: And the Glucose (Blood chemistries)?
A: 327.0 ± 23.0 mg/dL

Q: What about the Potassium (Blood chemistries) of the same compound?
A: 6 ± 0.04 mM

Q: What about the Sodium (Blood chemistries) of the same compound?
A: 140 ± 0.5 mM

Q: What about the Triglycerides (Blood chemistries) of the same compound?
A: 1029.0 ± 73.6 mg/dL

Q: What about the IL-6 (IL-6) of the same compound?
A: 391.0 ± 12*^

Q: And the Adiponectin (adiponectin)?
A: 4.27 ± 0.39

Q: What about the “insulin concentration one hour after the glucose challenge” value (Zucker Fatty Rats (ZFR) [2]; glucose 2.5 g/kg i.p.) of the same compound?
A: 2.37 ng/mL

Q: And the Baseline insulin concentration (Zucker Fatty Rats (ZFR) [2]; ipGTT baseline)?
A: 0.82 ng/mL

Q: What about the “average baseline glucose level” value (Zucker Fatty Rats (ZFR) [2]; ipGTT baseline) of the same compound?
A: 302 mg/dL
